# Test: thermodynamic stability of polymorphic forms
# Format: physicochemical
# Settings: at room temperature
compound,measurement,value
"CC(=O)N[C@H]1CC(=O)N(c2ccc(OCc3cccc(F)c3)cc2)C1 [Polymorph B, N-[(3S)-1-[4-[(3-fluorophenyl)methoxy]phenyl]-5-oxo-pyrrolidin-3-yl]acetamide]",thermodynamic stability of the crystal form,thermodynamically stable form
